According to patent publication US20220024963A1, “SALT OF TRIPHOSPHATE PHOSPHORAMIDATES OF NUCLEOTIDES AS ANTICANCER COMPOUNDS” (priority 2019, published 2022):
pEC50, pIC50: −log10 of the molar value. Structures can show the parent of a compound that is named as a salt. Where two headings read alike, the source gives them in different places.

Legend:
[1] = system: CCRF-CEM (ALL); assay: cells; type: cell-based; details: for Survival @ 25 nM / Survival @ 50 nM / Survival @ 125 nM: percentage of cell survival, 72 h; for pIC50: 72 h treatment, AlamarBlue
Excerpt: (§1) The efficacy (evaluated by IC50) of clofarabine and 3 different compounds representing different class of clofarabine ProTides (monophosphate, diphosphate and triphosphate molecules) was compared.
(§2) The tested cancer cell lines were acute lymphoblastic leukaemia (ALL), acute myeloid leukaemia (AML) and lymphoma: CCRF-CEM (ALL), HL60 (AML), KG1 (AML), OCI-AML3 (AML) and RL (lymphoma), grown in suspension, in RPMI-1640 media, supplemented with 10% FBS serum and 1% pen strep, except for KG1 cell line for which FBS was 20%.
(§3) For all experiments, cells were plated on a 96 well plate, at a density of 10,000 cells/well in 50 μL media. Dilutions from stock concentration to working solutions were prepared in media; at twice the required concentration and 50 μL was added per well (this achieving the final concentrations described in results below). Control untreated received 50 μL of plain media. After 66 h 10 μL of resazurin was added per well (dilution 1:10). Cells were then incubated with for up to 6 h. After 72 h treatment, cytotoxicity assay (AlamarBlue™−resazurin dye) was performed to determine cell survival. Plates were scanned with a BioHit800 plate reader and data were analysed with Excel and GraphPad Prism.
(§4) A low IC50 indicates greater potency under these laboratory conditions.
(§5) Clofarabine, A, 5a, 5b, 5c, 5d, 5e and 5f were tested against CCRF-CEM and OCI-AML3 cells. Data is represented as the percentage ofcell survival for each ofthe different concentrations to which cells were exposed, rather than calculating a formal IC50 from only two or three datapoints.

[2] = system: OCI-AML3 (AML); assay: cells; type: cell-based; details: for Survival @ 50 nM: OCI-AML3, 50 nM; for Survival @ 50 nM / Survival @ 125 nM: percentage of cell survival, 72 h; for Survival @ 125 nM: OCI-AML3, 125 nM; for pIC50: OCI-AML3, 72 h treatment, AlamarBlue
Excerpt: as §1, §2, §3, §4, §5

[3] = system: CCRF-CEM and OCI-AML3 cells; type: cell-based; details: both cell lines
Description: as §3, §5

[4] = system: CCRF-CEM; assay: In vitro viability assay, CellTiterGlo, 72 h (Example A); type: cell-based; details: for pEC50: read-out: Ab EC50
Description: (§6) A compound of the invention was assayed for cytotoxic activity in an array of different solid tumours and haematological malignancies using the following assay.
(§7) In vitro viability assay was performed to assess the effects of compounds on cell viability in selected cell lines over 72 h using the CellTiterGlo (CTG, Promega-G7573) assay. The tests were performed in duplicates with treatment of compounds at 9 points, 3.16 folds titration in 96 well plates over ˜72 h. The compound starting concentrations were 198 μM. Cell viability assay using CellTiterGlo in 96-well plate were performed. Compound treatment 72 h, standard growth conditions, duplicates. Compounds were dissolved to 40 mM with thawed […]. Compounds were serially diluted at 3.16 fold in thawed DMSO and warmed to 37° C. before being dissolved in media (2 μL+200 μL). After compounds were dissolved in media, media containing compounds were warmed to 37° C. in incubator and then compounds in media were added to cell plates (50 μL+50 μL) in duplicates. The compounds' final concentrations were from 198 μM to 19.8 nM. All compound solubilities were checked and recorded again, then the plates were transferred to CO2 tissue culture incubator immediately and incubated for 3 days. DMSO final concentration is 0.5%.

[5] = system: HL-60; assay: as above; type: cell-based; details: HL-60, CellTiterGlo; for pEC50: read-out: Ab EC50
Description: as §6, §7

[6] = system: HT29; assay: as above; type: cell-based
Description: as §6, §7

[7] = system: HepG2; assay: as above; type: cell-based; details: for pEC50: read-out: Ab EC50
Description: as §6, §7

[8] = system: K562; assay: as above; type: cell-based; details: for pEC50: read-out: Ab EC50
Description: as §6, §7

[9] = system: KG-1; assay: as above; type: cell-based; details: KG-1, CellTiterGlo; for pEC50: read-out: Ab EC50
Description: as §6, §7

[10] = system: MOLT-4; assay: as above; type: cell-based; details: MOLT-4, CellTiterGlo; for pEC50: read-out: Ab EC50
Description: as §6, §7

[11] = system: RL; assay: as above; type: cell-based; details: for pEC50: read-out: Ab EC50
Description: as §6, §7

[12] = system: RPMI-8226; assay: as above; type: cell-based, Human; details: RPMI-8226, CellTiterGlo; for pEC50: read-out: Ab EC50
Description: as §6, §7

[13] = system: HL60 (AML); assay: Cytotoxicity assay (AlamarBlue - resazurin dye), 72 h (Example B); type: cell-based
Excerpt: as §1, §2, §3, §4

[14] = system: KG1 (AML); assay: as above; type: cell-based; details: KG1, 72 h treatment
Excerpt: as §1, §2, §3, §4

[15] = system: RL (lymphoma); assay: as above; type: cell-based; details: 72 h treatment
Excerpt: as §1, §2, §3, §4

[16] = system: MCF-7; assay: In vitro viability assay, CellTiterGlo, 72 h (Example A); type: cell-based
Description: as §6, §7

[17] = Homo sapiens, HL-60, HL60, 72 h treatment
[18] = Homo sapiens, HT-29, read-out: Ab EC50

| Compound | Survival @ 25 nM [1] [%] | Survival @ 50 nM [1] [%] | Survival @ 125 nM [1] [%] | Survival @ 50 nM [2] [%] | Survival @ 125 nM [2] [%] | efficacy compared to A and clofarabine [3] | Top Inhibit [4] [%] | Top Inhibit [5] [%] | Top Inhibit [6] [%] | Top Inhibit [7] [%] | Top Inhibit [8] [%] | Top Inhibit [9] [%] | Top Inhibit [10] [%] | Top Inhibit [11] [%] | Top Inhibit [12] [%] | pIC50 [14] | pIC50 [15] | pIC50 ([1]; Homo sapiens) | pIC50 ([2]; Homo sapiens, OCI-AML-3) | pIC50 [13, 17] | other results |
| --- | --- | --- | --- | --- | --- | --- | --- | --- | --- | --- | --- | --- | --- | --- | --- | --- | --- | --- | --- | --- | --- |
| (2S)-Methyl 2-(((((((((2R,3R,4S,5R)-5-(6-amino-2-chloro-9H-purin-9-yl)-4-fluoro-3-hydroxytetrahydrofuran-2-yl)methoxy)(hydroxy)phosphoryl)oxy)(hydroxy)phosphoryl)oxy)(phenoxy)phosphoryl)amino)-4-(methylthio)butanoate di-triethylammonium salt [Compound 5d] | 92 | 16 | 14 | 61 | 29 | superior efficacy |  |  |  |  |  |  |  |  |  |  |  |  |  |  |  |
| Clofarabine | 36 | 17 | 13 | 47 | 19 |  | 99 | 97 | 68 | 57 | 32 | 93 | 94 | 61 | 80 | 6.61 | 6.94 |  |  |  | pEC50 [4]: > 7.70; pEC50 [5]: 7.40; pEC50 ([6]; read-out: Ab EC50): 6.59; pEC50 [7]: 5.96; pEC50 [8]: < 3.70; pEC50 [9]: 7.15; pEC50 [10]: > 7.70; pEC50 [11]: 6.51; pEC50 [12]: 4.56; pIC50 [1]: 7.39; pIC50 [2]: 7.13; pIC50 ([13]; HL60, 72 h treatment): 7.38 |
| (2S)-Cyclohexyl 2-(((((((((2R,3R,4S,5R)-5-(6-amino-2-chloro-9H-purin-9-yl)-4-fluoro-3-hydroxytetrahydrofuran-2-yl)methoxy)(hydroxy)phosphoryl)oxy)(hydroxy)phosphoryl)oxy)(phenoxy)phosphoryl)amino)-3-methylbutanoate di-triethylammonium salt [Compound 5e] | 99 | 75 | 90 | 100 | 95 |  |  |  |  |  |  |  |  |  |  |  |  |  |  |  |  |
| C[C@H](NP(=O)(Oc1cccc2ccccc12)OP(=O)(O)OP(=O)(O)OC[C@H]1O[C@@H](n2cnc3c(N)nc(Cl)nc32)[C@@H](F)[C@@H]1O)C(=O)OCc1ccccc1 (stereo partly drawn) [Compound 5b, (2S)-Benzyl 2-(((((((((2R,3R,4S,5R)-5-(6-amino-2-chloro-9H-purin-9-yl)-4-fluoro-3-hydroxytetrahydrofuran-2-yl)methoxy)(hydroxy)phosphoryl)oxy)(hydroxy)phosphoryl)oxy)(naphthalen-1-yloxy)phosphoryl)amino)propanoate di-triethylammonium salt] | 36 | 18 | 13 | 64 | 24 | superior efficacy |  |  |  |  |  |  |  |  |  |  |  |  |  |  |  |
| C[C@H](NP(=O)(Oc1ccccc1)OP(=O)(O)OC[C@H]1O[C@@H](n2cnc3c(N)nc(Cl)nc32)C(F)[C@H]1O)C(=O)OCc1ccccc1 (some centres unmarked) [B] |  |  |  |  |  |  |  |  |  |  |  |  |  |  |  | 6.57 | 6.82 | 7.08 | 6.92 | 7.14 |  |
| C[C@H](NP(=O)(Oc1ccccc1)OP(=O)(O)OP(=O)(O)OC[C@H]1O[C@@H](n2cnc3c(N)nc(Cl)nc32)C(F)[C@H]1O)C(=O)OCc1ccccc1 (stereo partly drawn) [Compound 5a, (2S)-Benzyl 2-(((((((((2R,3R,4S,5R)-5-(6-amino-2-chloro-9H-purin-9-yl)-4-fluoro-3-hydroxytetrahydrofuran-2-yl)methoxy)(hydroxy)phosphoryl)oxy) (hydroxy)phosphoryl)oxy)(phenoxy)phosphoryl)amino)propanoate, di-triethylammonium salt] | 81 | 100 | 13 | 86 | 51 |  | 99 | 97 | 64 | 51 | 33 | 92 | 86 | 57 | 94 | 6.46 | 6.93 | 7.10 | 6.94 | 7.25 | pEC50 ([4]; Homo sapiens): > 7.70; pEC50 ([5]; Homo sapiens): 6.48; pEC50 [6, 18]: 6.30; pEC50 ([7]; Homo sapiens): 6.21; pEC50 ([8]; Homo sapiens): < 3.70; pEC50 ([9]; Homo sapiens): 6.51; pEC50 ([16]; Homo sapiens, MCF7, MCF-7, CellTiterGlo, read-out: Ab EC50): < 3.70; Top Inhibit ([16]; MCF-7, CellTiterGlo): 40%; pEC50 ([10]; Homo sapiens): 7.40; pEC50 ([11]; Homo sapiens): 4.35; pEC50 ([12]; Homo sapiens): 4.69 |
| C[C@H](NP(=O)(OC[C@H]1O[C@@H](n2cnc3c(N)nc(Cl)nc32)C(F)[C@H]1O)Oc1ccccc1)C(=O)OCc1ccccc1 (some centres unmarked) [A] | 96 | 100 | 100 | 99 | 96 |  | 99 | 95 | 86 | 99 | 85 | 93 | 100 | 90 | 83 | 5.75 | 6.40 | 6.56 | 6.60 | 7.04 | pEC50 ([4]; Homo sapiens): 7.10; pEC50 ([5]; Homo sapiens): 6.66; pEC50 [6, 18]: 5.76; pEC50 ([7]; Homo sapiens): 5.12; pEC50 ([8]; Homo sapiens): 4.56; pEC50 ([9]; Homo sapiens): 6.36; pEC50 ([10]; Homo sapiens): 6.60; pEC50 ([11]; Homo sapiens): 5.37; pEC50 ([12]; Homo sapiens): 5.04 |
| (2S)-Isopropyl 2-(((((((((2R,3R,4S,5R)-5-(6-amino-2-chloro-9H-purin-9-yl)-4-fluoro-3-hydroxytetrahydrofuran-2-yl)methoxy)(hydroxy)phosphoryl)oxy)(hydroxy) phosphoryl)oxy)(phenoxy)phosphoryl)amino)propanoate di-triethylammonium salt [Compound 5c] | 93 | 94 | 14 | 99 | 61 |  |  |  |  |  |  |  |  |  |  |  |  |  |  |  |  |
| (2S)-Neopentyl 2-(((((((((2R,3R,4S,5R)-5-(6-amino-2-chloro-9H-purin-9-yl)-4-fluoro-3-hydroxytetrahydrofuran-2-yl)methoxy)(hydroxy)phosphoryl)oxy)(hydroxy)phosphoryl)oxy)(phenoxy)phosphoryl)amino)-3-phenylpropanoate di-triethylammonium salt [Compound 5f] | 85 | 16 | 14 | 57 | 32 | superior efficacy |  |  |  |  |  |  |  |  |  |  |  |  |  |  |  |
